“Also recorded” adds a separate entry of the source.
Experiments:
Format in all cases: physicochemical
[1] = Accelerated stability (ICH), 40° C./75% RH; details: for Appearance / Assay (anhydrous w/w %) / Chiral purity (area %) / Individual related substance (area %, w/w), RRT 0.46 / Individual related substance (area %, w/w), RRT 0.64 / Individual related substance (area %, w/w), RRT 1.26 / Purity (area %) / Total related substances (area %, w/w) / Water content (%) / XRPD: 40° C./75% RH
Method: Polymorph Form A was manufactured under Good Manufacturing Practices (GMP)-compliant conditions at a scale of 1.26 kg. The container closure for the batch consisted of double-lined low density polyethylene bags placed inside fiberboard drums, and the batch was on ICH stability under storage conditions of 25° C./60% relative humidity (RH) and 40° C./75% RH. Long-term stability data through the 36-month interval and accelerated stability data through the 6-month interval are shown in Tables 2 and 3.
Stability samples were tested according to the protocol (Table 5) and to the same specification as the drug substance. The available stability data for samples stored at 25° C./60% RH and 40° C./75% RH are summarized.

[2] = Hygroscopicity (DVS) of Polymorph Form A
Method: Details of DVS method used in the tests are summarized below: • Test the sorption/desorption profile of testing compound at 25° C. under 0-90% relative humidity. 3.3 HPLC Method
About 10 mg Polymorph Form A was weighed and the sorption/desorption profiles were set at 25° C. under 0-90% relative humidity. The compound after testing was also subjected to an XRPD test to determine if any polymorph changes exist after exposure to a cycle of humidity change.

[3] = Photostability / solid stability under light (5000 lux)
Method: Photostability testing was conducted on Polymorph Form A at 1- and 2-week intervals under light conditions of 5000 lux with the sample held at room temperature. The samples were tested for appearance, purity (HPLC), total related substances (TRS), and XRPD. The only change observed in the photostability samples was a decrease in purity of 0.6% at the 1-week interval.
About 3 mg Polymorph Form A was weighed in glass vials and samples stored under light condition (5000 lx) for 1 week and 2 weeks, separately. Another 20 mg testing compound was weighed in glass vials and the samples stored under light condition for 1 week and 2 weeks, separately. The original compound was stored at −20° C. as the control. The physical appearance, assay, total related substances (TRS) and XRPD pattern were checked at the end of the 1st week and the 2nd week.

[4] = 25° C., Cycle 1, target 0.0 % P/Po
[5] = 25° C., Cycle 1, target 10.0 % P/Po
[6] = 25° C., Cycle 1, target 20.0 % P/Po
[7] = 25° C., Cycle 1, target 30.0 % P/Po
[8] = 25° C., Cycle 1, target 40.0 % P/Po
[9] = 25° C., Cycle 1, target 50.0 % P/Po
[10] = 25° C., Cycle 1, target 60.0 % P/Po
[11] = 25° C., Cycle 1, target 70.0 % P/Po
[12] = 25° C., Cycle 1, target 80.0 % P/Po
[13] = 25° C., Cycle 1, target 90.0 % P/Po
[14] = 5000 Lux, open container, 0 weeks
[15] = 5000 Lux, open container, 1 week
[16] = 5000 Lux, open container, 2 weeks

Cc1cc(C)c(-c2ccc(NC(=O)[C@H](Cc3ccc(C(=O)NCCS(=O)(=O)[O-])cc3)c3ccc(-c4ccc(C(C)(C)C)cc4)cc3)cc2)c(C)c1.[Na+] [Polymorph Form A, Sodium (R)-2-(4-(2-(4′-(tert-butyl)-[1,1′-biphenyl]-4-yl)-3-oxo-3-((2′,4′,6′-trimethyl-[1,1′-biphenyl]-4-yl)amino)propyl)benzamido)ethane-1-sulfonate]
water content ([1]; 40° C./75% RH after the 2-month interval, stabilized level): approximately 10%
Appearance ([1]; 0 months): White
Assay (anhydrous w/w %) ([1]; 0 months): 101.3 w/w %
Chiral purity (area %) ([1]; 0 months): 99.9 area %
Individual related substance (area %, w/w), RRT 0.46 ([1]; 0 months): 0.08 area %, w/w
Individual related substance (area %, w/w), RRT 0.64 ([1]; 0 months): 0.12 area %, w/w
Individual related substance (area %, w/w), RRT 1.26 ([1]; 0 months): 0.05 area %, w/w
Purity (area %) ([1]; 0 months): 99.8 area %
Total related substances (area %, w/w) ([1]; 0 months): 0.25 area %, w/w
Water content (%) ([1]; 0 months): 2.1%
Appearance ([1]; 1 month): White
Assay (anhydrous w/w %) ([1]; 1 month): 102.0 w/w %
Chiral purity (area %) ([1]; 1 month): 99.8 area %
Individual related substance (area %, w/w), RRT 0.46 ([1]; 1 month): 0.08 area %, w/w
Individual related substance (area %, w/w), RRT 0.64 ([1]; 1 month): 0.11 area %, w/w
Individual related substance (area %, w/w), RRT 1.26 ([1]; 1 month): 0.05 area %, w/w
Purity (area %) ([1]; 1 month): 99.8 area %
Total related substances (area %, w/w) ([1]; 1 month): 0.24 area %, w/w
Water content (%) ([1]; 1 month): 8.1%
Appearance ([1]; 2 months): White
Assay (anhydrous w/w %) ([1]; 2 months): 103.4 w/w %
Chiral purity (area %) ([1]; 2 months): 99.8 area %
Individual related substance (area %, w/w), RRT 0.46 ([1]; 2 months): 0.08 area %, w/w
Individual related substance (area %, w/w), RRT 0.64 ([1]; 2 months): 0.12 area %, w/w
Individual related substance (area %, w/w), RRT 1.26 ([1]; 2 months): 0.06 area %, w/w
Purity (area %) ([1]; 2 months): 99.7 area %
Total related substances (area %, w/w) ([1]; 2 months): 0.26 area %, w/w
Water content (%) ([1]; 2 months): 9.8%
Appearance ([1]; 3 months): White
Assay (anhydrous w/w %) ([1]; 3 months): 103.4 w/w %
Chiral purity (area %) ([1]; 3 months): 100.0 area %
Individual related substance (area %, w/w), RRT 0.46 ([1]; 3 months): 0.08 area %, w/w
Individual related substance (area %, w/w), RRT 0.64 ([1]; 3 months): 0.11 area %, w/w
Individual related substance (area %, w/w), RRT 1.26 ([1]; 3 months): 0.05 area %, w/w
Purity (area %) ([1]; 3 months): 99.8 area %
Total related substances (area %, w/w) ([1]; 3 months): 0.24 area %, w/w
Water content (%) ([1]; 3 months): 10.0%
XRPD ([1]; 3 months): Same form
Appearance ([1]; 6 months): White
Assay (anhydrous w/w %) ([1]; 6 months): 103.7 w/w %
Chiral purity (area %) ([1]; 6 months): 100.0 area %
Individual related substance (area %, w/w), RRT 0.46 ([1]; 6 months): 0.08 area %, w/w
Individual related substance (area %, w/w), RRT 0.64 ([1]; 6 months): 0.12 area %, w/w
Individual related substance (area %, w/w), RRT 1.26 ([1]; 6 months): 0.05 area %, w/w
Purity (area %) ([1]; 6 months): 99.8 area %
Total related substances (area %, w/w) ([1]; 6 months): 0.25 area %, w/w
Water content (%) ([1]; 6 months): 10.0%
XRPD ([1]; 6 months): Same form
Change in Mass (%)-ref, Desorption [2, 4]: 0.20%
Change in Mass (%)-ref, Sorption [2, 4]: 0.00%
Change in Mass (%)-ref, Desorption [2, 5]: 1.64%
Change in Mass (%)-ref, Hysteresis [2, 5]: 0.29%
Change in Mass (%)-ref, Sorption [2, 5]: 1.35%
Change in Mass (%)-ref, Desorption [2, 6]: 2.73%
Change in Mass (%)-ref, Hysteresis [2, 6]: 0.39%
Change in Mass (%)-ref, Sorption [2, 6]: 2.34%
Change in Mass (%)-ref, Desorption [2, 7]: 4.08%
Change in Mass (%)-ref, Hysteresis [2, 7]: 0.50%
Change in Mass (%)-ref, Sorption [2, 7]: 3.58%
Change in Mass (%)-ref, Desorption [2, 8]: 5.48%
Change in Mass (%)-ref, Hysteresis [2, 8]: 0.63%
Change in Mass (%)-ref, Sorption [2, 8]: 4.85%
Change in Mass (%)-ref, Desorption [2, 9]: 6.98%
Change in Mass (%)-ref, Hysteresis [2, 9]: 0.87%
Change in Mass (%)-ref, Sorption [2, 9]: 6.11%
Change in Mass (%)-ref, Desorption [2, 10]: 8.08%
Change in Mass (%)-ref, Hysteresis [2, 10]: 0.39%
Change in Mass (%)-ref, Sorption [2, 10]: 7.69%
Change in Mass (%)-ref, Desorption [2, 11]: 13.12%
Change in Mass (%)-ref, Hysteresis [2, 11]: 3.90%
Change in Mass (%)-ref, Sorption [2, 11]: 9.21%
Change in Mass (%)-ref, Desorption [2, 12]: 16.12%
Change in Mass (%)-ref, Hysteresis [2, 12]: 1.04%
Change in Mass (%)-ref, Sorption [2, 12]: 15.09%
Change in Mass (%)-ref, Desorption [2, 13]: 20.08%
Change in Mass (%)-ref, Sorption [2, 13]: 20.08%
Hygroscopicity classification ([2]; DVS, 0 to 90% RH, 25° C.): very hygroscopic
XRPD after hygroscopicity test ([2]; after a cycle of humidity change): no change
weight gain ([2]; from 0 to 90% RH, 25° C.): 20.08%
Appearance [3, 14]: White powder
Purity (area %) [3, 14]: 99.8 area %
Total related substances (area %, w/w) [3, 14]: 0.25 area %, w/w
Appearance [3, 15]: White powder
Purity (area %) [3, 15]: 99.2 area %
Total related substances (area %, w/w) [3, 15]: 0.25 area %, w/w
XRPD [3, 15]: Same form
Appearance [3, 16]: White powder
Purity (area %) [3, 16]: 99.2 area %
Total related substances (area %, w/w) [3, 16]: 0.25 area %, w/w
XRPD [3, 16]: Same form
stability under light condition (overall) ([3]; 5000 lux, 2 weeks): No significant changes; also recorded: No significant increase in TRS % or decrease in recovery %; also recorded: relatively stable
decrease in purity ([3]; 5000 lux, room temperature, 1-week interval): 0.6%
Appearance ([3]; light (5000 lx), 1 week): white powder
TRS % ([3]; light (5000 lx), 1 week): 0.25%
XRPD pattern ([3]; light (5000 lx), 1 week): Form A
Appearance ([3]; light (5000 lx), 2 weeks): white powder
TRS % ([3]; light (5000 lx), 2 weeks): 0.25%
XRPD pattern ([3]; light (5000 lx), 2 weeks): Form A
Appearance ([3]; −20° C., 0 day (control)): white powder
TRS % ([3]; −20° C., 0 day (control)): 0.25%
XRPD pattern ([3]; −20° C., 0 day (control)): Form A

From patent US12208071B2, “Glucagon receptor antagonists” (LIGAND PHARMACEUTICALS INCORPORATED, priority 2018, dated 2025)
